# Where two headings read alike, the source gives them in different places.
# Key:
# [1] = test system: REM134 cells; assay: MTT cell proliferation/cytotoxicity assay; type: cell-based, canine; conditions: Canis lupus familiaris, read-out: Half-Maximal Inhibitory Concentration (IC50)
# Experimental: (§1) The cytotoxic effects of the three BZOP derivatives were studied via the 3-(4,5-Dimethyl-2-thiazolyl)-2,5-diphenyl-2H-tetrazolium bromide (MTT) assay. The REM134, CMGT071020, and MDCK cell lines were seeded at a density of 5 × 10^3 cells/well in 96-well plates and allowed to grow for 24 h. They were then treated with the three BZOP derivatives at various concentrations (0–300 µM) for 24 or 48 h, whereas cells treated with the culture medium containing 0.1% dimethyl sulfoxide (DMSO) were used as a negative control as the compounds were dissolved in DMSO. Subsequently, the cells were incubated with 10 µL of an MTT solution (Sigma, St. Louis, MO, USA) for 4 h. After the incubation with MTT solution, 100 µL of a solubilization solution was added to dissolve water-insoluble purple formazan crystals, and the plate was incubated overnight at 37 °C in 5% CO2. The absorbance of the formazan solution was measured using a Synergy H1 hybrid multi-mode microplate reader (BioTek, Winooski, VT, USA) at 570 nm. The experiment was conducted with four replicates, and the relative cell viability (%) of the treated cells was expressed as a percentage relative to the untreated control cells, which were considered to have 100% viability.
# [2] = test system: MDCK cells; assay: MTT cell proliferation/cytotoxicity assay; type: cell-based, canine; conditions: Canis lupus familiaris, read-out: Half-Maximal Inhibitory Concentration (IC50)
# Experimental: as §1
structure (smiles),measurement,setting,value
"Cc1ncccc1Oc1ccccc1C=O [MPOBA, 2-((2-methylpyridin-3-yl)oxy)benzaldehyde]",IC50,"[1]; REM134, 24 h",265 µM
same,IC50,"[1]; REM134, 48 h",87 µM
same,IC50,[2]; 24 h,> 300 µM
same,IC50,[2]; 48 h,267 µM

# Reference: PMC10854894, “A New Benzo[6,7]oxepino[3,2-b] Pyridine Derivative Induces Apoptosis in Canine Mammary Cancer Cell Lines” (Animals : an Open Access Journal from MDPI, 2024)
